Laboratory results from patent publication US7183267B2, “β-lactamase inhibitors and methods of use thereof” (priority 2003, dated 2007).

System: methicillin resistant S. aureus ATCC 33591 (MRSA-ATCC)
Experiment: Matrix system: oxacillin plus β-lactamase inhibitor, MRSA-ATCC
Type: cell-based
Set-up: key to extent of growth (numerical code): 0 = no growth, 1 = faint, 2 = fair, 3 = equal to solvent control
Procedure: To each well of a 96 well microtiter plate was added 47.5 μl of MHB. A volume of 2.5 μl of each dilution of oxacillin was then transferred to appropriate wells containing the medium. All wells, except the sterility control wells, were then inoculated with 50 μl of a diluted cell suspension to give a final volume of 100 μl and a final cell density of 5×10^4 CFU/well. The volume in the sterility control wells was adjusted to 100 μl with MHB. A sterile pipette tip was used to mix the contents of each well (one tip was used going from the low to the high concentration in the same column). The microtiter plates were covered with the lids and were placed in large Stratagene Big Blue plates (Cat. # 400041). Four large kimwipes moistened with tap water were placed near the edges of the Stratagene plates to prevent evaporation of the medium. The microtiter plates were incubated for at least 24 hours at 35° C. The plates were then evaluated for growth in each well. Controls included: medium sterility and negative control (medium and bacteria only).
A numerical code was used to evaluate the extent of growth as indicated below. • 0: absence of growth • 1: barely visible (faint) growth • 2: fair growth but less than the negative solvent control • 3: growth is equivalent to the negative solvent control.
The lowest dose at which no visible growth is observed was determined to be the MIC value.
The effect of the four compounds of the present invention on oxacillin resistance of the MRSA strains was determined using a matrix system. The β-lactamase inhibitors were tested at 5 doses against up to eleven concentrations of oxacillin. […] A 96-well microtiter plate was used for the matrix system. The procedure was identical to that described above for the MIC determination, with the exception that both oxacillin and one each of the β-lactamase inhibitors was added, 2.5 μl each, to the wells prior to addition of the test organisms.
Matrix Study:Oxacillin and Compound FL201 with MRSA-ATCC
Matrix Study: Oxacillin and Compound Fl202 with MRSA-ATCC

## COC(=O)c1cc(B(O)O)cc([N+](=O)[O-])c1 [Compound F1202]
Matrix study, with compound 1 μg/ml
  MIC of oxacillin: 32 µg/mL
Matrix study, with compound 2 μg/ml
  MIC of oxacillin: 16 µg/mL
Matrix study, with compound 4 μg/ml
  MIC of oxacillin: 1 µg/mL
Matrix study, with compound 8 μg/ml
  MIC of oxacillin: 0.125 µg/mL
Matrix study, with compound 16 μg/ml
  MIC of oxacillin: <0.064 µg/mL
Oxacillin 0 μg/ml + compound 1 μg/ml
  extent of growth (numerical code): 3
Oxacillin 0 μg/ml + compound 2 μg/ml
  extent of growth (numerical code): 2
Oxacillin 0 μg/ml + compound 4 μg/ml
  extent of growth (numerical code): 2
Oxacillin 0 μg/ml + compound 8 μg/ml
  extent of growth (numerical code): 1
Oxacillin 0 μg/ml + compound 16 μg/ml
  extent of growth (numerical code): 1
Oxacillin 0.064 μg/ml + compound 1 μg/ml
  extent of growth (numerical code): 3
Oxacillin 0.064 μg/ml + compound 2 μg/ml
  extent of growth (numerical code): 3
Oxacillin 0.064 μg/ml + compound 4 μg/ml
  extent of growth (numerical code): 2
Oxacillin 0.064 μg/ml + compound 8 μg/ml
  extent of growth (numerical code): 1
Oxacillin 0.064 μg/ml + compound 16 μg/ml
  extent of growth (numerical code): 0
Oxacillin 0.125 μg/ml + compound 1 μg/ml
  extent of growth (numerical code): 3
Oxacillin 0.125 μg/ml + compound 2 μg/ml
  extent of growth (numerical code): 3
Oxacillin 0.125 μg/ml + compound 4 μg/ml
  extent of growth (numerical code): 2
Oxacillin 0.125 μg/ml + compound 8 μg/ml
  extent of growth (numerical code): 0
Oxacillin 0.125 μg/ml + compound 16 μg/ml
  extent of growth (numerical code): 0
Oxacillin 0.25 μg/ml + compound 1 μg/ml
  extent of growth (numerical code): 3
Oxacillin 0.25 μg/ml + compound 2 μg/ml
  extent of growth (numerical code): 2
Oxacillin 0.25 μg/ml + compound 4 μg/ml
  extent of growth (numerical code): 1
Oxacillin 0.25 μg/ml + compound 8 μg/ml
  extent of growth (numerical code): 0
Oxacillin 0.25 μg/ml + compound 16 μg/ml
  extent of growth (numerical code): 0
Oxacillin 0.5 μg/ml + compound 1 μg/ml
  extent of growth (numerical code): 3
Oxacillin 0.5 μg/ml + compound 2 μg/ml
  extent of growth (numerical code): 2
Oxacillin 0.5 μg/ml + compound 4 μg/ml
  extent of growth (numerical code): 1
Oxacillin 0.5 μg/ml + compound 8 μg/ml
  extent of growth (numerical code): 0
Oxacillin 0.5 μg/ml + compound 16 μg/ml
  extent of growth (numerical code): 0
Oxacillin 1 μg/ml + compound 1 μg/ml
  extent of growth (numerical code): 3
Oxacillin 1 μg/ml + compound 2 μg/ml
  extent of growth (numerical code): 2
Oxacillin 1 μg/ml + compound 4 μg/ml
  extent of growth (numerical code): 0
Oxacillin 1 μg/ml + compound 8 μg/ml
  extent of growth (numerical code): 0
Oxacillin 1 μg/ml + compound 16 μg/ml
  extent of growth (numerical code): 0
Oxacillin 2 μg/ml + compound 1 μg/ml
  extent of growth (numerical code): 2
Oxacillin 2 μg/ml + compound 2 μg/ml
  extent of growth (numerical code): 2
Oxacillin 2 μg/ml + compound 4 μg/ml
  extent of growth (numerical code): 0
Oxacillin 2 μg/ml + compound 8 μg/ml
  extent of growth (numerical code): 0
Oxacillin 2 μg/ml + compound 16 μg/ml
  extent of growth (numerical code): 0
Oxacillin 4 μg/ml + compound 1 μg/ml
  extent of growth (numerical code): 2
Oxacillin 4 μg/ml + compound 2 μg/ml
  extent of growth (numerical code): 2
Oxacillin 4 μg/ml + compound 4 μg/ml
  extent of growth (numerical code): 0
Oxacillin 4 μg/ml + compound 8 μg/ml
  extent of growth (numerical code): 0
Oxacillin 4 μg/ml + compound 16 μg/ml
  extent of growth (numerical code): 0
Oxacillin 8 μg/ml + compound 1 μg/ml
  extent of growth (numerical code): 2
Oxacillin 8 μg/ml + compound 2 μg/ml
  extent of growth (numerical code): 1
Oxacillin 8 μg/ml + compound 4 μg/ml
  extent of growth (numerical code): 0
Oxacillin 8 μg/ml + compound 8 μg/ml
  extent of growth (numerical code): 0
Oxacillin 8 μg/ml + compound 16 μg/ml
  extent of growth (numerical code): 0
Oxacillin 16 μg/ml + compound 1 μg/ml
  extent of growth (numerical code): 2
Oxacillin 16 μg/ml + compound 2 μg/ml
  extent of growth (numerical code): 0
Oxacillin 16 μg/ml + compound 4 μg/ml
  extent of growth (numerical code): 0
Oxacillin 16 μg/ml + compound 8 μg/ml
  extent of growth (numerical code): 0
Oxacillin 16 μg/ml + compound 16 μg/ml
  extent of growth (numerical code): 0
Oxacillin 32 μg/ml + compound 1 μg/ml
  extent of growth (numerical code): 0
Oxacillin 32 μg/ml + compound 2 μg/ml
  extent of growth (numerical code): 0
Oxacillin 32 μg/ml + compound 4 μg/ml
  extent of growth (numerical code): 0
Oxacillin 32 μg/ml + compound 8 μg/ml
  extent of growth (numerical code): 0
Oxacillin 32 μg/ml + compound 16 μg/ml
  extent of growth (numerical code): 0
Oxacillin 64 μg/ml + compound 1 μg/ml
  extent of growth (numerical code): 0
Oxacillin 64 μg/ml + compound 2 μg/ml
  extent of growth (numerical code): 0
Oxacillin 64 μg/ml + compound 4 μg/ml
  extent of growth (numerical code): 0
Oxacillin 64 μg/ml + compound 8 μg/ml
  extent of growth (numerical code): 0
Oxacillin 64 μg/ml + compound 16 μg/ml
  extent of growth (numerical code): 0

## Cc1onc(-c2ccccc2)c1C(=O)N[C@@H]1C(=O)N2[C@@H]1SC(C)(C)[C@@H]2C(=O)O [Oxacillin, reference compound]
Staphylococcus aureus, 24 h, matrix study, compound 0 μg/ml
  MIC: 64 µg/mL
Oxacillin 0.064 μg/ml + compound 0 μg/ml
  extent of growth (numerical code): 3
Oxacillin 0.125 μg/ml + compound 0 μg/ml
  extent of growth (numerical code): 3
Oxacillin 0.25 μg/ml + compound 0 μg/ml
  extent of growth (numerical code): 3
Oxacillin 0.5 μg/ml + compound 0 μg/ml
  extent of growth (numerical code): 3
Oxacillin 1 μg/ml + compound 0 μg/ml
  extent of growth (numerical code): 3
Oxacillin 2 μg/ml + compound 0 μg/ml
  extent of growth (numerical code): 3
Oxacillin 4 μg/ml + compound 0 μg/ml
  extent of growth (numerical code): 3
Oxacillin 8 μg/ml + compound 0 μg/ml
  extent of growth (numerical code): 3
Oxacillin 16 μg/ml + compound 0 μg/ml
  extent of growth (numerical code): 2
Oxacillin 32 μg/ml + compound 0 μg/ml
  extent of growth (numerical code): 2
Oxacillin 64 μg/ml + compound 0 μg/ml
  extent of growth (numerical code): 0
